According to patent US8822541B2, “Use of targeted nitroxide agents in mitigating or treating radiation injury” (University of Pittsburgh—Of the Commonwealth System of …, priority 2008, dated 2014):
Each block holds one compound with its values, some of them ahead of it. Where a SMILES comes first, the peptide text is derived from it. [ ]: non-standard residue; d: D form. The star is where a group is joined. NH(TEMPO-4-yl) = CC1(C)CC(N*)CC(C)(C)N1[O]; Orn = NCCC[C@H](N)C(=O)O; Cbz = O=C(OCc1ccccc1)*; Boc = CC(C)(C)OC(=O)*; X1 = CC1CCN=C(N*)S1

Columns and labels:
[1] = system: mouse embryonic cells; assay: EPR-based analysis of integration and reduction of nitroxide Gramicidin S-peptidyl conjugates in MECs; type: cell-based; conditions: 10 μM, MECs and mitochondria isolated from them
Description: Electron paramagnetic resonance (“EPR”) spectroscopy was used to monitor the cellular delivery of compounds 5a and 5b shown in FIG. 3 in mouse embryonic cells (“MEC”).
The following conditions were used during the EPR-based analysis of the integration and reduction of nitroxide Gramicidin S-peptidyl conjugates in MECs. The MECs at a concentration of 10 million MECs per mL were incubated with 10 μM of 4-AT and compound 5a, respectively. Recovered nitroxide radicals in whole cells, mitochondria, and cytosol fractions were resuspended in phosphate buffer saline (“PBS”) in the presence and absence, respectively, of 2 μM K3Fe(CN)6.

[2] = system: mouse embryonic cells; assay: ActD-induced apoptosis in MECs (PS externalization, caspase-3, DNA fragmentation); type: cell-based; parameters: protection against ActD-induced apoptosis: dose or concentration left out as unconfirmed; conditions: for DNA fragmentation / caspase-3 activation / number of annexin V-positive cells (PS externalization): 10 μM, ActD 100 ng/mL; for effect at concentrations in excess of 10 μM: PS externalization
Excerpt: Cells that annexin V-positive and PI-negative were considered apoptotic.

[3] = system: mitochondria of 32D c13 hemopoietic cells; assay: Mass spectrometry of conjugates in isolated mitochondria; type: cell-based, mouse; conditions: 100 μM, 2 h; for permeation of the mitochondrial membrane (mass spectrometry): 37° C.; for Fmole/10 μM mitochondrial protein: mouse
Description: An unconjugated and conjugated NOS antagonist, (AMT, 100 μM) and an unconjugated and conjugated nitroxide derivative (4-amino-TEMPO, 100 μM) were incubated for two hours at 37° C. with 32D c13 hemopoietic cells.
Following incubation, the cells were lysed and the mitochondria isolated for a mass spectrometry analysis where compounds isolated from mitochondria were identified as Na+ adducts. […] Thus, the targeting peptides successfully direct a NOS antagonist and a nitroxide to the mitochondria.
Quantitative mass spectrometry studies were used to compare the effectiveness of several AMT peptide conjugates in permeating the mitochondrial membrane, specifically XJB-5-234, XJB-5-133, XJB-5-241, and XJB-5-127. The Fmole/10 μM mitochondrial protein ratio provides a relative quantification of conjugate concentration at the target site.

[4] = system: irradiated uroepithelial cells; assay: NO and peroxynitrite production in irradiated uroepithelial cells (microsensor); type: cell-based; conditions: AMT 10 μM, 4-amino-TEMPO 100 μM; 24 h after irradiation
Description: Further physiological studies were conducted to determine the effects of peptide-targeted AMT and 4-amino-TEMPO on NO and peroxynitrite production in irradiated uroepithelial cells. The cells were cultured in an 8-well slide chamber for 3 days and then microsensor measurements were taken 24 hours after irradiation.
In cells treated with high-dose conjugated 4-amin-TEMPO (100 μM), peroxynitrite production was decreased by approximately 4-fold.

[5] = system: mouse embryonic cells; assay: Intracellular superoxide generation (DHE flow cytometry) in ActD-treated MECs; type: cell-based; conditions: 10 μM pretreatment, ActD 100 ng/mL
Description: Determination of intracellular superoxide radicals Oxidation-dependent fluorogenic dye, dihydroethidium (“DHE”, Molecular Probes) was used to evaluate intracellular production of superoxide radicals. DHE is cell permeable and, in the presence of superoxide, is oxidized to fluorescent ethidium which intercalates into DNA. The fluorescence of ethidium was measured using a FACscan (Becton-Dickinson, Rutherford, N.J.) flow cytometer, equipped with a 488-nm argon ion laser and supplied with the Cell Quest software. Mean fluorescence intensity from 10,000 cells were acquired using a 585-nm bandpass filter (FL-2 channel).

[6] = comparison drugs; cited from earlier work
[7] = system: 32D cl 3 murine hematopoietic cells; assay: Gamma-irradiation dose survival curves of 32D cl 3 cells (XJB-5-125, Tempol); type: cell-based, mouse
Excerpt: FIG. 16 illustrates the effect of GS conjugated nitroxide, XJB-5-125, on gamma-irradiation dose survival curves of 32D cl 3 murine hematopoietic cells.

SMILES: CC1(C)CC(N)CC(C)(C)N1[O] [4-amino-TEMPO, reference compound]
- integration into cells and mitochondria (EPR signals of nitroxide radicals) [1]: did not effectively permeate cells or the mitochondria
- protection against ActD-induced apoptosis ([2]; low concentrations): afforded no protection
- permeation of the mitochondrial membrane (mass spectrometry) [3]: only permeate the mitochondrial membrane with the assistance of the attached GS-derived targeting sequence
- NO induced peroxynitrite formation [4]: comparable amount of peroxynitrite
- intracellular superoxide generation [5]: no effect

SMILES: CC(C)C[C@@H](/C=C/[C@H](Cc1ccccc1)C(=O)N1CCC[C@H]1C(=O)N[C@H](C(=O)N[C@@H](CCCNC(=O)OCc1ccccc1)C(=O)NC1CC(C)(C)N([O])C(C)(C)C1)C(C)C)NC(=O)OC(C)(C)C [Compound 5a]
- integration into cells and mitochondria (EPR signals of nitroxide radicals) [1]: triplet signals of nitroxide radicals were detected
- DNA fragmentation [2]: prevented DNA fragmentation
- caspase-3 activation [2]: prevented caspase-3 activation
- number of annexin V-positive cells (PS externalization) [2]: reduced the number of annexin V-positive cells
- effect at concentrations in excess of 10 μM [2]: either less protective or exhibited cytotoxicity
- intracellular superoxide generation [5]: completely inhibited

SMILES: CC(C)C[C@H](NC(=O)OC(C)(C)C)C(=O)N[C@H](Cc1ccccc1)C(=O)N1CCC[C@H]1C(=O)N[C@H](C(=O)N[C@@H](CCCNC(=O)OCc1ccccc1)C(=O)NC1CC(C)(C)N([O])C(C)(C)C1)C(C)C [Compound 5b] (Boc-L[dF]PV[Orn](Cbz)-{NH(TEMPO-4-yl)})
- DNA fragmentation [2]: prevented DNA fragmentation
- caspase-3 activation [2]: prevented caspase-3 activation
- number of annexin V-positive cells (PS externalization) [2]: reduced the number of annexin V-positive cells
- effect at concentrations in excess of 10 μM [2]: either less protective or exhibited cytotoxicity
- intracellular superoxide generation [5]: completely inhibited

SMILES: COc1ccc2c(c1)c(CC(=O)O)c(C)n2C(=O)c1ccc(Cl)cc1 [Indomethecin]
- log Ko/w [6]: 4.23

SMILES: CC1(C)CC(O)CC(C)(C)N1[O] [TEMPOL, 4-hydroxy-2,2,6,6-tetramethylpiperidine-N-oxyl]
- n (shoulder on the survival curve) [7]: 5.82
- Do ([7]; vs 0.797 Gy for 32D cl 3 cells alone): 1.209 Gy

- Fmole/10 μM mitochondrial protein [3]: 50.8 Fmole/10 μM mitochondrial protein
SMILES: CC(C)C[C@H](NC(=O)OC(C)(C)C)C(=O)N[C@H](Cc1ccccc1)C(=O)N1CCC[C@H]1C(=O)N[C@H](C(=O)N[C@@H](CCCNC(=O)OCc1ccccc1)C(=O)NC1=NCCC(C)S1)C(C)C (stereo partly drawn) [XJB-5-127, Boc-Leu-^DPhe-Pro-Val-Orn(Cbz)-AMT] (Boc-L[dF]PV[Orn](Cbz)-X1)

- Fmole/10 μM mitochondrial protein [3]: 89.8 Fmole/10 μM mitochondrial protein
SMILES: CC(C)C[C@@H](/C=C/[C@H](Cc1ccccc1)C(=O)N1CCC[C@H]1C(=O)N[C@H](C(=O)N[C@@H](CCCNC(=O)OCc1ccccc1)C(=O)NC1=NCCC(C)S1)C(C)C)NC(=O)OC(C)(C)C (stereo partly drawn) [XJB-5-133, Boc-Leu-ψ[(E)-CH═CH]-^DPhe-Pro-Val-Orn(Cbz)-AMT]

- Fmole/10 μM mitochondrial protein [3]: 1.45 Fmole/10 μM mitochondrial protein
SMILES: CC(C)C[C@@H](/C=C/[C@H](Cc1ccccc1)C(=O)NC1=NCCC(C)S1)NC(=O)OC(C)(C)C (stereo partly drawn) [XJB-5-234, Boc-Leu-ψ[(E)-CH═CH]-^DPhe-AMT]

- Fmole/10 μM mitochondrial protein [3]: 103.3 Fmole/10 μM mitochondrial protein
SMILES: C/C(=C\[C@H](Cc1ccccc1)C(=O)N1CCC[C@H]1C(=O)N[C@H](C(=O)N[C@@H](CCCNC(=O)OCc1ccccc1)C(=O)NC1=NCCC(C)S1)C(C)C)[C@H](CC(C)C)NC(=O)OC(C)(C)C (stereo partly drawn) [XJB-5-241, Boc-Leu-ψ[(E)-C(CH3)═CH]^DPhe-Pro-Val-Orn(Cbz)-AMT]

SMILES: Clc1ccccc1C(c1ccccc1)(c1ccccc1)n1ccnc1 [clotrimazole]
- log Ko/w [6]: 6.27

SMILES: CC(=O)N1CCN(c2ccc(OCC3COC(Cn4ccnc4)(c4ccc(Cl)cc4Cl)O3)cc2)CC1 (stereo not drawn) [ketaconazole]
- log Ko/w [6]: 4.34

SMILES: CC1CCN=C(N)S1 (stereo not drawn) [unconjugated AMT, 2-amino-6-methyl-thiazine, reference compound]
- permeation of the mitochondrial membrane (mass spectrometry) [3]: do not enter the mitochondria membrane in substantial quantities
- NO induced peroxynitrite formation [4]: comparable amount of peroxynitrite
